From publication PMC9176744 (Science Advances, 2022)
One block for each molecule: values may come before it.

Experiments:
DHS1^WT [1] = target: T1, DHS1^WT (Arabidopsis thaliana, UniProt P29976); experiment: DHS enzyme assay; assay type: biochemical; details: for inhibition of DHS1 activity: screening of AAA-derived metabolites as potential inhibitors (Fig. 2D); for IC50: recombinant DHS1^WT, varied effector concentrations
DHS3 (DHS^WT isoform) [2] = experiment: DHS enzyme assay; assay type: biochemical, Arabidopsis thaliana; details: for inhibition of DHS3 WT activity: all DHS^WT isoforms
DHS2^A11 = experiment: DHS enzyme assay, DHS2 with the sotaA11 mutation; details: for change in IC50 versus corresponding WT enzyme: DHS2^A11, the weakest sota allele; for inhibition of DHS2^A11 activity: concentration of up to 1 mM
[3] = tested on: sota mutants (DHS enzymes); experiment: DHS enzyme assay, sota mutant enzymes compared with corresponding WT enzymes; assay type: biochemical, Arabidopsis thaliana; details: nearly all of the sota mutants; maximum increase
DHS2^WT [4] = target: T2, DHS2^WT (Arabidopsis thaliana, UniProt Q00218); details: shown previously; cited from earlier work
T2 sequence (Q00218 34-507): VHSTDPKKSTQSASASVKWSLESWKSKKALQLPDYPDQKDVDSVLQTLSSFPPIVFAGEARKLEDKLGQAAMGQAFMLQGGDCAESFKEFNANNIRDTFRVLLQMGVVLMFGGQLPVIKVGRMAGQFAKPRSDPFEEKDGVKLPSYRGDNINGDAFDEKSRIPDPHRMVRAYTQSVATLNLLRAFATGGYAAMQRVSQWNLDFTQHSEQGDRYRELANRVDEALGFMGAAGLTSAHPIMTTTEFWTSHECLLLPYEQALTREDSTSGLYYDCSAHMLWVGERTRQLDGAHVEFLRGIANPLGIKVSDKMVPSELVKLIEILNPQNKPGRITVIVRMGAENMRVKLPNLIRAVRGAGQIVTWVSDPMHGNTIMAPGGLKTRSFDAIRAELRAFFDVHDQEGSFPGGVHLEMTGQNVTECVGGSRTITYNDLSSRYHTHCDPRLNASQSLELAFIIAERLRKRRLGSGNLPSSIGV

DHS1^WT [5] = target: T1, DHS1^WT; details: shown previously; cited from earlier work
DHS1^B4 = experiment: DHS enzyme assay, DHS1 with the sotaB4 mutation; assay type: biochemical, Arabidopsis thaliana; details: comparable IC50 values to DHS1^WT
DHS3 (DHS^WT isoform) [6] = details: shown previously; cited from earlier work
DHS2^A4 = experiment: DHS enzyme assay, DHS2 with the sotaA4 mutation; details: for inhibition of DHS2^A4: similar IC50 values to DHS2^WT; for inhibition of DHS2^A4 activity: concentration of up to 1 mM
DHS2^WT [7] = target: T2, DHS2^WT; experiment: DHS enzyme assay; assay type: biochemical; details: for inhibition of DHS2 activity: screening of AAAs and AAA-derived metabolites as potential inhibitors (Fig. 2D); for inhibition at 1000 µM: read-out: inhibition of DHS2; for IC50: recombinant DHS2^WT, varied effector concentrations
[8] = tested on: Arabidopsis plants (Col-0, sotaB4, sotaA4); experiment: Plant growth on media containing the effector
DHS2^F1 = experiment: DHS enzyme assay, DHS2 with the sotaF1 mutation; details: concentration of up to 1 mM
[9] = ILA feeding, media with 0, 250, 500 or 1000 μM, 3-week-old plants, fresh weight

T1 sequence (P29976 49-525): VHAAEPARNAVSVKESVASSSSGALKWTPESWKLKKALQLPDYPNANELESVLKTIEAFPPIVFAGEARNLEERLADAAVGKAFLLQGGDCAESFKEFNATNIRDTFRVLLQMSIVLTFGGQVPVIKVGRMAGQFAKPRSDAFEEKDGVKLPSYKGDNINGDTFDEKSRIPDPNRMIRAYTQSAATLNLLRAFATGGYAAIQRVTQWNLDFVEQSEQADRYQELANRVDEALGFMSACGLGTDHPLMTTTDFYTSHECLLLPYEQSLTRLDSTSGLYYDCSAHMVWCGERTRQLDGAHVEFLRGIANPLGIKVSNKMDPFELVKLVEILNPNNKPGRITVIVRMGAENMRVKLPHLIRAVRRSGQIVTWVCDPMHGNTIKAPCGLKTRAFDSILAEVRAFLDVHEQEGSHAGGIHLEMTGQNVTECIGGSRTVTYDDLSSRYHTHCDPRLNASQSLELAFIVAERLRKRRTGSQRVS

- inhibition of DHS1 activity (DHS1^WT [1]): neither
SMILES: O=C(O)C(=O)Cc1ccccc1 [PPY, phenylpyruvate]

- inhibition of DHS3 WT activity (DHS3 (DHS^WT isoform) [2]): effectively inhibited
- change in IC50 versus corresponding WT enzyme (DHS2^A11): no significant change
- increase in IC50 versus corresponding WT enzymes [3]: up to 7 fold
SMILES: O=C(O)C(=O)Cc1ccc(O)cc1 [HPP, 4-Hydroxyphenylpyruvate]

- inhibition of DHS2^A4 (DHS2^A4): still inhibited
SMILES: N[C@@H](CC1(C(=O)O)C=CC(O)C=C1)C(=O)O (stereo partly shown) [arogenate]
- inhibition of DHS2 (DHS2^WT [4]): slightly inhibit

- inhibition of DHS1 activity (DHS1^WT [1]): reduced the activity
- inhibition of DHS2 activity (DHS2^WT [7]): reduced the activity
SMILES: O=C(O)C(O)Cc1c[nH]c2ccccc12 (stereo not shown) [ILA, Indole-3-lactate]
- effect on growth of Col-0 WT plants [8, 9]: growth inhibition
- growth inhibition in sotaB4 mutant plants versus Col-0 [8, 9]: significantly weakened

- inhibition of DHS2^A11 activity (DHS2^A11): not inhibited
- inhibition of DHS2^A4 activity (DHS2^A4): not inhibited
- inhibition of DHS2^F1 activity (DHS2^F1): not inhibited
SMILES: N[C@@H](Cc1c[nH]c2ccccc12)C(=O)O [Trp, tryptophan]
- inhibition of DHS2 (DHS2^WT [4]): inhibit

- inhibition of DHS1 activity (DHS1^WT [1]): neither
SMILES: O=C(O)Cc1ccc(O)cc1 [4-hydroxyphenylacetate]

- inhibition at 1000 µM (DHS2^WT [7]): ~30%
SMILES: OCCc1ccc(O)cc1 [Tyrosol]

- inhibition of DHS2^A11 activity (DHS2^A11): not inhibited
- inhibition of DHS2^A4 activity (DHS2^A4): not inhibited
- inhibition of DHS2^F1 activity (DHS2^F1): not inhibited
SMILES: N[C@@H](Cc1ccc(O)cc1)C(=O)O [Tyr, L-tyrosine]

- inhibition of DHS3 WT activity (DHS3 (DHS^WT isoform) [2]): effectively inhibited
- IC50 (DHS3 (DHS^WT isoform) [2]; recombinant DHS3 WT, varied effector concentrations): 75 to 250 µM
- IC50 (DHS1^WT [1]): 75 to 250 µM
- inhibition of DHS1 activity (DHS1^WT [1]): effectively inhibited
- IC50 (DHS2^WT [7]): 75 to 250 µM
- inhibition of DHS2 activity (DHS2^WT [7]): effectively inhibited
- change in IC50 versus corresponding WT enzyme (DHS2^A11): no significant change
- increase in IC50 versus corresponding WT enzymes [3]: ≤ 12 fold
SMILES: O=C(O)Cc1cc(O)ccc1O [HGA, homogentisate]

Second part, the molecule before the results:

SMILES: O=C(O)/C=C/c1ccc(O)c(O)c1 [caffeate]
- inhibition of DHS2 (DHS2^WT [4]): strongly inhibit
- inhibition of DHS1 (DHS1^WT [5]): strongly inhibit
- inhibition of DHS1^B4 (DHS1^B4): still strongly inhibited
- inhibition of DHS3 (DHS3 (DHS^WT isoform) [6]): strongly inhibit
- inhibition of DHS2^A4 (DHS2^A4): still inhibited

SMILES: O=C(O)C1=C[C@@H](O)[C@@H](O)[C@H](O)C1 [shikimate]
- inhibition of DHS2 (DHS2^WT [4]): slightly inhibit
- inhibition of DHS2^A4 (DHS2^A4): still inhibited

SMILES: NCCc1ccc(O)cc1 [tyramine]
- inhibition at 1000 µM (DHS2^WT [7]): ~30%

SMILES: c1ccc2[nH]ccc2c1 [indole]
- inhibition of DHS1 activity (DHS1^WT [1]): did not affect the activity

SMILES: Nc1ccccc1C(=O)[O-].[Na+] [Anthranilate]
- inhibition of DHS1 activity (DHS1^WT [1]): did not affect the activity
- inhibition of DHS2 activity (DHS2^WT [7]): slight reduction

SMILES: O=C(O)C(=O)CC1(C(=O)O)C=CC(O)C=C1 (stereo not shown) [prephenate]
- inhibition of DHS2 (DHS2^WT [4]): slightly inhibit
- inhibition of DHS2^A4 (DHS2^A4): still inhibited

SMILES: O=C(O)C(=O)Cc1c[nH]c2ccccc12 [IPA, indole-3-pyruvate]
- IC50 (DHS1^WT [1]): 241 µM
- inhibition of DHS1 activity (DHS1^WT [1]): inhibit
- IC50 (DHS2^WT [7]): 58 µM
- inhibition of DHS2 activity (DHS2^WT [7]): inhibit
- effect on plant growth ([8]; independent of genotypes, even at very low concentration (<10 μM)): impaired plant growth

SMILES: NCCc1c[nH]c2ccccc12 [tryptamine]
- inhibition of DHS1 activity (DHS1^WT [1]): did not affect the activity
- inhibition of DHS2 activity (DHS2^WT [7]): slight reduction

SMILES: C=C(O[C@@H]1C=C(C(=O)O)C=C[C@H]1O)C(=O)O [chorismate]
- inhibition of DHS2 (DHS2^WT [4]): strongly inhibit
- inhibition of DHS1 (DHS1^WT [5]): strongly inhibit
- inhibition of DHS1^B4 (DHS1^B4): still strongly inhibited
- inhibition of DHS3 (DHS3 (DHS^WT isoform) [6]): strongly inhibit
- inhibition of DHS2^A4 (DHS2^A4): still inhibited
